This note sets out measurements from patent EP2805705B1, “Packaging with one or more administration units comprising a sodium salt of (R)-3-[6-amino-pyridin-3-yl]-2-(1-cyclohexyl-1 H-imidazol-4-yl)-propionic acid” (IP Gesellschaft für Management mbH, priority 2013, dated 2014).

Molecules are shown by their SMILES.

Data set [1] can be described thus: Physical stability on storage for 14 days (XRPD, thermogravimetry). Conditions: stored 14 days under conditions (A), (B), (C) and (D). It counts as physicochemical. As for the experimental part:
Example 3: Physical stability: Representative samples of the crystalline salt of (R)-3-(6-amino-pyridin-3-yl)-2-(1-cyclohexyl-1 H-imidazol-4-yl)-propionic acid ethyl ester with naphthalene-1,5-disulfonic acid as in Example 1 are produced and are stored for 14 days under the conditions (A), (B), (C) and (D): (A) 50°C; (B) 50°C and 80% relative humidity; (C) 80°C; (D) 80°C and 80% relative humidity.

The nature of data set [2]: Chiral stability on storage for 14 days (chiral HPLC). The class given is physicochemical. On the procedure: Example 4: Chiral stability: Representative samples of the crystalline salt of (R)-3-(6-amino-pyridin-3-yl)-2-(1-cyclohexyl-1 H-imidazol-4-yl)-propionic acid ethyl ester with naphthalene-1,5disulfonic acid were prepared as described in example 1 amd stored for 14 days under described conditions (A), (B), (C) and (D): Results:
The enantiomeric purity of the sample measured at the beginning of measurement was 99.0%. Under the storage conditions 50°C (A) and 50°C and 80% relative humidity (B) a small increase of 0.2% of the (S)-enantiomers was observed. Under storage conditions 80°C (C), no change can be observed. Under the storage condition 80°C and 80% relative humidity (D) an increase of 2.7% of (S)-enantiomers was are observed. The measurements were made as described in Example 1 by chromatography on a chiral phase, Chiral HPLC (Chiralcel OD-H/84 (250x4.6 mm), heptane: isopropanol: acetonitrile 15:1: 0.5 +0.1% diethylamine (DEA), 30°C, 1 ml / min): Rt = 27.01 min.

Take `CCOC(=O)[C@H](Cc1ccc(N)nc1)c1cn(C2CCCCC2)cn1.O=S(=O)(O)c1cccc2c(S(=O)(=O)O)cccc12` [naphthalene-1,5-disulfonic acid salt of (R)-3-(6-amino-pyridin-3-yl)-2-(1-cyclohexyl-1 H-imidazol-4-yl)-propionic acid-ethylester]: the “XRPD measurements at the beginning and after 14 days” value in data set [1] is given as “close to each other”. For the same compound, the enantiomeric purity was 99.0% in data set [2] (at the beginning of measurement); 98.8% in data set [2] (storage condition (A) 50°C, 14 days); 98.8% in data set [2] (storage condition (B) 50°C and 80% relative humidity, 14 days); 99.0% in data set [2] (storage condition (C) 80°C, 14 days); 96.3% in data set [2] (storage condition (D) 80°C and 80% relative humidity, 14 days). Further, the “increase of (S)-enantiomers” value in data set [2] (storage condition 80°C and 80% relative humidity (D), 14 days) is listed as 2.7%. Further, the “increase of the (S)-enantiomers” value in data set [2] (storage conditions 50°C (A) and 50°C and 80% relative humidity (B), 14 days) is recorded as 0.2%. Further, in data set [2] (storage conditions 80°C (C), 14 days), the “change of enantiomeric purity” value is reported as “no change”.
